Results published in patent US9650361B2, “N-(pyridin-2-yl)pyrimidin-4-amine derivatives containing a sulfoximine group” (BAYER PHARAM AKTIENGESELLSCHAFT, priority 2012, dated 2017).
Values after ≈ are worked out from the molar mass of the structure shown.

Experiment: Equilibrium shake flask solubility assay, thermodynamic solubility in water (Method 4a)
Assay type: physicochemical
Conditions: aqueous buffer, thermodynamic from solid; phosphate buffer pH 6.5, 24 h, room temperature
Procedure: 4. Equilibrium Shake Flask Solubility Assay:
4a) Thermodynamic Solubility in Water
The thermodynamic solubility of compounds in water was determined by an equilibrium shake flask method (see for example: E. H. Kerns, L. Di: Drug-like Properties: Concepts, Structure Design and Methods, 276-286, Burlington, Mass., Academic Press, 2008). A saturated solution of the drug was prepared and the solution was mixed for 24 h to ensure that equilibrium was reached. The solution was centrifuged to remove the insoluble fraction and the concentration of the compound in solution was determined using a standard calibration curve. To prepare the sample, 2 mg solid compound was weighed in a 4 mL glass vial. 1 mL phosphate buffer pH 6.5 was added. The suspension was stirred for 24 hrs at room temperature. The solution was centrifuged afterwards. To prepare the sample for the standard calibration, 2 mg solid sample was dissolved in 30 mL acetonitrile. After sonification the solution was diluted with water to 50 mL. Sample and standards were quantified by HPLC with UV-detection. For each sample two injection volumes (5 and 50 μl) in triplicates were made. Three injection volumes (5 μl, […]) were made for the standard. […]
The areas of sample- and standard injections as well as the calculation of the solubility value (in mg/l) were determined by using HPLC software (Waters Empower 2 FR).

Work on `COc1cc(F)ccc1-c1cc(Nc2cc(CS(C)(=N)=O)ccn2)ncn1` (racemic) [Example 1, (rac)-6-(4-Fluoro-2-methoxyphenyl)-N-{4-[(S-methylsulfonimidoyl)methyl]pyridin-2-yl}pyrimidin-4-amine] yielded a solubility at 24 h of 7 µg/mL (≈ 18.1 µM).
